Data taken from the NIST ThermoML archive (doi:10.1016/j.jct.2018.05.003).
± gives the expanded uncertainty stated by the source.

Assays:
[1] = activity coefficient (dimensionless); of the first substance listed, at infinite dilution; xn = mol fraction of the nth substance listed; conditions: 298.15 K; 101.33 kPa; Liquid; Chromatography; x1 = 0
[2] = Crystal; visual observation

| activity coefficient [1] | Normal melting temperature [2] [°C] | SMILES |
| --- | --- | --- |
| 0.73 ± 0.03 |  | c1ccccc1 [benzene] + CCCCCOC(C)=O |
|  | 183.2 ± 1.1 | O=C(O)c1ccc(Cl)c([N+](=O)[O-])c1 [4-chloro-3-nitrobenzoic acid] |
| 2.43 ± 0.11 |  | CCCO [propan-1-ol] + CCCCCOC(C)=O |
|  | 141.6 ± 0.9 | O=C(O)c1cccc([N+](=O)[O-])c1 [3-nitrobenzoic acid] |
| 1.22 ± 0.03 |  | C=CCCCC [hex-1-ene] + CCCCCOC(C)=O |
| 1.74 ± 0.1 |  | CCCCCC [hexane] + CCCCCOC(C)=O |
| 1.9 ± 0.1 |  | CCCCCCC [heptane] + CCCCCOC(C)=O |
|  | 109.2 ± 0.9 | Cc1cccc(C(=O)O)c1 [3-methylbenzoic acid] |
|  | 159.6 ± 1.1 | O=C(O)c1ccccc1O [2-hydroxybenzoic acid] |
|  | 95.4 ± 1.1 | O=C(C(=O)c1ccccc1)c1ccccc1 [1,2-diphenylethanedione] |
| 1.02 ± 0.06 |  | CCCc1ccccc1 [propylbenzene] + CCCCCOC(C)=O |
|  | 167.0 ± 1.1 | O=C(O)c1cc([N+](=O)[O-])ccc1Cl [2-chloro-5-nitrobenzoic acid] |
|  | 122.5 ± 0.9 | O=C(O)c1ccccc1 [benzoic acid] |
| 0.61 ± 0.03 |  | Fc1ccccc1 [fluorobenzene] + CCCCCOC(C)=O |
| 0.98 ± 0.04 |  | CCc1ccccc1 [ethylbenzene] + CCCCCOC(C)=O |

Second part, the molecule before the results:

| SMILES | activity coefficient [1] | Normal melting temperature [2] [°C] |
| --- | --- | --- |
| C1CCCCC1 [cyclohexane] + CCCCCOC(C)=O | 1.51 ± 0.05 |  |
| C=CCCCCC [1-heptene] + CCCCCOC(C)=O | 1.35 ± 0.04 |  |
| Cc1ccccc1 [toluene] + CCCCCOC(C)=O | 0.86 ± 0.04 |  |
| CCCCCCCCC [nonane] + CCCCCOC(C)=O | 2.17 ± 0.14 |  |
| CC(C)O [propan-2-ol] + CCCCCOC(C)=O | 2.86 ± 0.11 |  |
| CC(C)=O [acetone] + CCCCCOC(C)=O | 1.19 ± 0.05 |  |
| CCO [ethanol] + CCCCCOC(C)=O | 2.97 ± 0.12 |  |
| O=S(=O)(c1ccccc1)c1ccccc1 [diphenyl sulfone] |  | 125.1 ± 0.9 |
| Cc1ccc(C)cc1 [1,4-dimethylbenzene] + CCCCCOC(C)=O | 0.92 ± 0.03 |  |
| C=CCCCCC=C [1,7-octadiene] + CCCCCOC(C)=O | 1.14 ± 0.05 |  |
| CCOC(C)=O [ethyl acetate] + CCCCCOC(C)=O | 0.96 ± 0.03 |  |
| CC#N [acetonitrile] + CCCCCOC(C)=O | 1.69 ± 0.05 |  |
| ClC(Cl)Cl [trichloromethane] + CCCCCOC(C)=O | 0.27 ± 0.03 |  |
| CCCCCCCCCC [decane] + CCCCCOC(C)=O | 2.5 ± 0.13 |  |
| CC(Cl)CCl (stereo unspecified) [1,2-dichloropropane] + CCCCCOC(C)=O | 0.61 ± 0.03 |  |
| c1ccc2c(c1)Nc1ccccc1S2 [10H-phenothiazine] |  | 184.8 ± 0.7 |
| C1CCOC1 [tetrahydrofuran] + CCCCCOC(C)=O | 0.8 ± 0.04 |  |
| C[N+](=O)[O-] [nitromethane] + CCCCCOC(C)=O | 1.28 ± 0.05 |  |
| CCCCCCCC [octane] + CCCCCOC(C)=O | 2.02 ± 0.09 |  |
| C#CCCCCCC [1-octyne] + CCCCCOC(C)=O | 0.85 ± 0.03 |  |
| Cc1cccc(C)c1 [1,3-dimethylbenzene] + CCCCCOC(C)=O | 0.9 ± 0.03 |  |
| C1=CCCCC1 [cyclohexene] + CCCCCOC(C)=O | 1.16 ± 0.03 |  |
| CCCCCl [1-chlorobutane] + CCCCCOC(C)=O | 0.84 ± 0.03 |  |
| C1COCCO1 [1,4-dioxane] + CCCCCOC(C)=O | 0.91 ± 0.03 |  |
| Brc1ccccc1 [bromobenzene] + CCCCCOC(C)=O | 0.78 ± 0.05 |  |
| CC(C)Br [2-bromopropane] + CCCCCOC(C)=O | 0.82 ± 0.03 |  |
